COc1ccc(Cl)cc1C(=O)NCCc1ccc(S(=O)(=O)NC(=O)NC2CCCCC2)cc1
solubility (mole fraction)
Conditions	283.15 K	288.15 K	293.15 K	298.15 K	303.15 K	308.15 K	313.15 K	318.15 K	323.15 K
in acetone	0.000443	0.000559	0.000701	0.00088	0.00112	0.0014	0.00175	0.00219	0.00269
in ethanol	0.000103	0.000145	0.000196	0.000259	0.000333	0.000437	0.00062	0.000893	0.00122
in ethyl acetate	8.63e-05	0.000115	0.000146	0.000186	0.000236	0.000307	0.000394	0.000511	0.000647
in isopropanol	7.96e-05	9.98e-05	0.00013	0.000176	0.000216	0.000286	0.000422	0.000607	0.000892
in methanol	0.000129	0.000172	0.00022	0.0003	0.000378	0.000477	0.00066	0.00103	0.00137
in water	8.38e-08	8.83e-08	1.05e-07	1.28e-07	1.64e-07	2.3e-07	3.24e-07	4.54e-07	7.84e-07
